Source: PMC5540879 (Molecular cancer research : MCR, 2017)

Each compound was assayed against T1, OATP1B3 (Homo sapiens, UniProt Q9NPD5) (assay: radiolabeled uptake kinetics). Conditions: oatp1b3-cho cells.
T1 sequence (Q9NPD5 1-702): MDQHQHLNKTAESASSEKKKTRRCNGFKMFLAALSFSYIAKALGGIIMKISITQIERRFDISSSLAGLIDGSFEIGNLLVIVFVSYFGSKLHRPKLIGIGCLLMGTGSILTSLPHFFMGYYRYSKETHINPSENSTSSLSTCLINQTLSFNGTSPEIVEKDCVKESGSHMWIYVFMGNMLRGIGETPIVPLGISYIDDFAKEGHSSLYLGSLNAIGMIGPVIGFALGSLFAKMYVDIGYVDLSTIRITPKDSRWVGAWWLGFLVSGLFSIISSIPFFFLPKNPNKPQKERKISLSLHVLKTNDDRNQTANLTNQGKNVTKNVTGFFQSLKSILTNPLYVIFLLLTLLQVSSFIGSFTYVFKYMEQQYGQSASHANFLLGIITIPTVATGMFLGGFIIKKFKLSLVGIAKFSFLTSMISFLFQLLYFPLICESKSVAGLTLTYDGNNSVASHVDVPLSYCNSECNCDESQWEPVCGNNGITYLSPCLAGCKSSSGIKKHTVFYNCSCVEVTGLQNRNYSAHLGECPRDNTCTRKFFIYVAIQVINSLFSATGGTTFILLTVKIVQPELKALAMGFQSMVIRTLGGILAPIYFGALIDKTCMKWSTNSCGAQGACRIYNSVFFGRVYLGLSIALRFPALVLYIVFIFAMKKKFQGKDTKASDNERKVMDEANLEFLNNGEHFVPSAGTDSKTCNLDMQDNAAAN
Format: cell-based

| Compound | Km [µM] |
| --- | --- |
| C[C@]12CCC(=O)C=C1CC[C@@H]1[C@@H]2CC[C@]2(C)C(=O)CC[C@@H]12 [androstenedione, 4-androstene-3,17-dione] | 31.7 ± 9.5 |
| C[C@]12CCC(=O)C[C@@H]1CC[C@@H]1[C@@H]2CC[C@]2(C)[C@@H](O)CC[C@@H]12 [DHT] | 30.4 ± 9.3 |
| C[C@]12CC[C@H]3[C@@H](CCC4=CC(=O)CC[C@@]43C)[C@@H]1CC[C@@H]2O [testosterone] | 23.2 ± 3.9 |
